Source: patent US9164075B2, “Glutathione alkylester isotopologue and method for detecting reactive metabolite” (priority 2011, dated 2015)

Assays:
[1] = rat, 60 min, 10 μmol/L, pH 7.4
Protocol: Glutathione ethyl ester (1 mmol/L, 1 μmol) was used as the trapping agent instead of the mixture of glutathione ethyl ester (GSHEE) and glutathione ethyl ester-d5 (GSHEE-d5), and the reaction and measurement were performed in the same manner as in (step 1) and (step 2) described above.
In the MS/MS measurement corresponding to (step 2-3), the MS/MS measurement was performed in a data dependent scan mode in which ions with the strongest intensity in a first spectrum were subjected to collisional activation to thereby obtain a second spectrum. The measurement conditions used are as follows (measurement conditions C).

[2] = for NUMBER OF IDENTIFIED REACTIVE METABOLITES (EXAMPLES): rat, 60 min, 10 μmol/L, pH 7.4
Protocol: (§1) NADPH (20 mmol/L, […]) was added to the pre-incubated incubation mixture and a reaction (incubation) was started. The final incubation volume was 1 mL. A sample containing no object compound was used as a control.
(§2) After incubation at 37° C. for 60 minutes, a 50 mmol/L aqueous dithiothreitol solution (100 μL, 5 μmol) was added to the incubation mixture, and the resultant mixture was subjected to centrifugation at 10,000 g for 5 minutes. The centrifugation supernatant was added to a solid phase extraction column (OASIS HLB 1 cc, 30 mg) that was pre-washed with 1 mL of methanol and activated with 1 mL of purified water. The column was washed with 1 mL of water and 1 mL of 5% methanol solution, and a reaction product was eluted with 1 mL of methanol. The solvent was removed by evaporation under nitrogen flow, and the residue was dissolved in 150 μL of acetonitrile:water (2:8) to prepare an analysis sample.
(§3) An AQCUITY UPLC system (WATERS) was used for separation by chromatography. Aliquots (10 μL) of the prepared analysis sample was injected into an AQCUITY UPLC BEH C18 column (2.1×100 mm, 1.7 μm). The separation by chromatography was performed under gradient conditions shown in the following table at a mobile phase flow rate of 0.5 mL/minute.
(§4) The LC column eluate obtained in step 2-1 was introduced into an LTQ XL ion trap mass spectrometer. Ionization was performed in an ESI positive mode (a mode for detecting positively charged ions). The measurement conditions used are shown below (measurement conditions A).
The measurement conditions used are shown below (measurement conditions B).
Among the peaks appearing in the final chromatogram, peaks other than the peaks also appearing in the final chromatogram for the control (FIG. 2 or 13) are considered to be the peaks of trapping agent-reactive metabolite adducts.

[3] = rat, 60 min, 10 μmol/L, pH 7.4; remark: listed apart in the source
Protocol: as §1
as §2, with “minutes,” for “minutes, a 50 mmol/L aqueous dithiothreitol solution (100 μL, 5 μmol) was added to the incubation mixture, and”, “water,” for “solution,”
as §3, with “under the” for “under”, “TABLE 3” for “the following table”
as §4
The measurement conditions used are shown below (measurement conditions E).
Among the peaks appearing in the final chromatogram, peaks other than the peaks also appearing in the final chromatogram for the control (FIG. 46) are considered to be the peaks of trapping agent-reactive metabolite adducts.

[4] = Reactive metabolite trapping test with glutathione ethyl ester only, data dependent scan mode with Dynamic Exclusion ON (Comparative Example 8); type: in vitro ADME; details: rat liver microsomes
Protocol: Omeprazole was used as the object compound. Measurement was performed in the same manner as in Comparative Example 1 except that the MS/MS measurement corresponding to (step 2-3) was performed in a data dependent scan mode (a Dynamic Exclusion ON mode) in which the MS/MS measurement was performed on ions in descending order of intensity. In the data dependent scan mode (Dynamic Exclusion ON mode), ions for a peak with the strongest intensity among the peaks in a first spectrum are subjected to MS/MS measurement three times. Then these ions are eliminated, and ions with the next strongest intensity are subjected to MS/MS measurement three times. This processing is repeated in order of intensity. The measurement conditions used are as follows (measurement conditions D).

NUMBER OF IDENTIFIED REACTIVE METABOLITES (COMPARATIVE EXAMPLES, GSHEE) [1]	judgement of reactive metabolite formation [2]	NUMBER OF IDENTIFIED REACTIVE METABOLITES (EXAMPLES) [2]	NUMBER OF IDENTIFIED REACTIVE METABOLITES (COMPARATIVE EXAMPLES, [13C2, 15N]GSH) [3]	number of types of reactive metabolite found [4]	Structure (SMILES)
1	–	–	–	–	O=C(O)Cc1ccccc1Nc1c(Cl)cccc1Cl [diclofenac]
1	positive	2	2	one	COc1ccc2[nH]c([S+]([O-])Cc3ncc(C)c(OC)c3C)nc2c1 (centres unmarked) [omeprazole]
3	positive	3	2	–	O=c1c(O)c(-c2ccc(O)c(O)c2)oc2cc(O)cc(O)c12 [quercetin]
0	positive	1	1	–	O=C(O)COc1ccc(C(=O)c2cccs2)c(Cl)c1Cl [tienilic acid]
